Laboratory results published in patent publication EP3409761B1, “CULTURE MEDIUM COMPOSITION, AND METHOD FOR CULTURING CELL OR TISSUE USING SAID COMPOSITION” (Nissan Chemical Corporation, priority 2012, dated 2014).
Starred links: 1 amine or outer side, 2 acyl side, 3 side chain; linkers in the order of their positions; H or OH if unused. Positions of bridges follow the written chain, without caps; N, C: chain ends. Non-standard residues stand in square brackets, D forms with d. Residues, ends and D or L forms follow the SMILES beside them. Chains are numbered I, II in the order given. Actinocin(9to1) = Cc1c2oc3c(C)ccc(C(=O)[*:1])c3nc-2c(C(=O)[*:2])c(N)c1=O; NMeV = CN[C@H](C(=O)O)C(C)C; Sar = CNCC(=O)O

Assays:
Format in all cases: cell-based
[1] = tested on: human cervical cancer cell line HeLa; assay: Comparison with single layer culture method using agent for inducing apoptosis; conditions: day 4
Description: This aqueous solution was sterilized at 121°C for 20 min in an autoclave. […] Each plate was cultured by being stood still in a CO2 incubator (37°C, 5% CO2). […] To the culture medium on day 4 was added an ATP reagent (150 µL) (CellTiter-Glo (registered trade mark) Luminescent Cell Viability Assay, manufactured by Promega) to give a suspension, which was stood for about 10 min at room temperature, and the luminescence intensity (RLU value) was measured by FlexStation3 (manufactured by Molecular Devices), and the number of viable cells was measured by subtracting the luminescence value of the medium alone. For WST-8 measurement, a WST-8 solution (manufactured by DOJINDO Laboratories, 15 µL) was added, the mixture was incubated at 37°C for 100 min, the absorbance at 450 nm was measured by an absorbance spectrometer (manufactured by Molecular Devices, SPECTRA MAX 190), and the number of viable cells was measured by subtracting the absorbance of the medium alone.

[2] = tested on: human cervical cancer cell line HeLa; assay: Cell proliferation test using various anticancer drugs; conditions: DAG 0.030% medium; for cell density: 5 days later
Description: This aqueous solution was sterilized at 121°C for 20 min in an autoclave. […] The anticancer drug used was Adriamycin (manufactured by WAKO), Paclitaxel (manufactured by WAKO) or Mitomycin C (manufactured by WAKO).
Successively, this plate was cultured by being stood still in a CO2 incubator (37°C, 5% CO2) for 7 days. After culturing for 3, 5, 7 days, to the culture medium was added a WST-8 solution (manufactured by DOJINDO Laboratories, 20 µL), and the mixture was incubated at 37°C for 100 min. The absorbance at 450 nm was measured by an absorbance spectrometer (manufactured by Molecular Devices, SPECTRA MAX 190), and the number of viable cells was measured by subtracting the absorbance of the medium alone. The culture medium containing the cells after 5 days of culture was stirred with a pipette and the obtained stirred solution (20 µL) was mixed with Trypan Blue stain 0.4% (manufactured by Invitrogen, 20 µL) and the cell density was measured under a microscope.

[3] = tested on: human cervical cancer cell line HeLa; assay: Comparison with single layer culture method in cell proliferation test using anticancer drug; conditions: day 4
Description: This aqueous solution was sterilized at 121°C for 20 min in an autoclave. […] Each plate was cultured by being stood still in a CO2 incubator (37°C, 5% CO2). […] The anticancer drug used was Adriamycin (manufactured by WAKO), Paclitaxel (manufactured by WAKO) or Mitomycin C (manufactured by WAKO). To the culture medium on day 4 was added an ATP reagent (150 µL) (CellTiter-Glo (registered trade mark) Luminescent Cell Viability Assay, manufactured by Promega) to give a suspension, which was stood for about 10 min at room temperature, and the luminescence intensity (RLU value) was measured by FlexStation3 (manufactured by Molecular Devices), and the number of viable cells was measured by subtracting the luminescence value of the medium alone. For WST-8 measurement, a WST-8 solution (manufactured by DOJINDO Laboratories, 15 µL) was added, the mixture was incubated at 37°C for 100 min, the absorbance at 450 nm was measured by an absorbance spectrometer (manufactured by Molecular Devices, SPECTRA MAX 190), and the number of viable cells was measured by subtracting the absorbance of the medium alone.

[4] = agent 0.2 µM, deacylated gellan gum addition group (0.015%)
[5] = agent 0.2 µM, single layer culture group
[6] = agent 2 µM, deacylated gellan gum addition group (0.015%)
[7] = agent 2 µM, single layer culture group
[8] = agent 1 µM, deacylated gellan gum addition group (0.015%)
[9] = agent 1 µM, single layer culture group
[10] = drug 0.001 µM, deacylated gellan gum addition group (0.015%)
[11] = drug 0.001 µM, single layer culture group
[12] = drug 0.01 µM, deacylated gellan gum addition group (0.015%)
[13] = drug 0.01 µM, single layer culture group
[14] = drug 0.1 µM, deacylated gellan gum addition group (0.015%)
[15] = drug 0.1 µM, single layer culture group
[16] = drug 1 µM, deacylated gellan gum addition group (0.015%)
[17] = drug 1 µM, single layer culture group
[18] = agent 10 µM, deacylated gellan gum addition group (0.015%)
[19] = agent 10 µM, single layer culture group
[20] = drug 0.005 µM, deacylated gellan gum addition group (0.015%)
[21] = drug 0.005 µM, single layer culture group
[22] = drug 0.05 µM, deacylated gellan gum addition group (0.015%)
[23] = drug 0.05 µM, single layer culture group
[24] = drug 0.5 µM, deacylated gellan gum addition group (0.015%)
[25] = drug 0.5 µM, single layer culture group
[26] = agent 100 µM, deacylated gellan gum addition group (0.015%)
[27] = agent 100 µM, single layer culture group

`CC[C@@]1(O)C(=O)OCc2c1cc1n(c2=O)Cc2cc3ccccc3nc2-1` [Camptothecin] was tested, and the “% Control value of the RLU value (ATP measurement)” value (shortened to “% Control value of the RLU value”) [1, 4] was 27 % Control, the “% Control value of the absorbance at 450 nm (WST-8 measurement)” value (from here on “% Control value of the absorbance”) [1, 4] was 24 % Control and the “% Control value of the RLU value” value [1, 5] was 63 % Control. For the same molecule, the “% Control value of the absorbance” value [1, 5] was 68 % Control, the “% Control value of the RLU value” value [1, 6] was 11 % Control and the “% Control value of the absorbance” value [1, 6] was 7 % Control. The “% Control value of the RLU value” value [1, 7] was 44 % Control and the “% Control value of the absorbance” value [1, 7] was 28 % Control.
In the case of `COc1cccc2c1C(=O)c1c(O)c3c(c(O)c1C2=O)C[C@@](O)(C(=O)CO)C[C@@H]3O[C@H]1C[C@H](N)[C@H](O)[C@H](C)O1` [Adriamycin], the “% Control value of the RLU value” value [1, 8] is reported as 5 % Control, the “% Control value of the absorbance” value [1, 8] is reported as 3 % Control and the “% Control value of the RLU value” value [1, 9] is reported as 3 % Control. The “% Control value of the absorbance” value [1, 9] was 3 % Control, the cell density ([2]; drug 0.001 µM) was 5.1 10^4 cells/mL and the “cell number (absorbance at 450 nm, WST-8)” value (shortened to “cell number”) ([2]; drug 0.001 µM, day 3) was 0.237. The “cell number” value ([2]; drug 0.001 µM, day 5) was 0.246, the “cell number” value ([2]; drug 0.001 µM, day 7) was 0.184 and the cell density ([2]; drug 0.01 µM) was 2.6 10^4 cells/mL. The “cell number” value ([2]; drug 0.01 µM, day 3) was 0.230, the “cell number” value ([2]; drug 0.01 µM, day 5) was 0.098 and the “cell number” value ([2]; drug 0.01 µM, day 7) was 0.068. For the same molecule, the cell density ([2]; drug 0.1 µM) was 1.7 10^4 cells/mL, the “cell number” value ([2]; drug 0.1 µM, day 3) was 0.037 and the “cell number” value ([2]; drug 0.1 µM, day 5) was 0.005. The “cell number” value ([2]; drug 0.1 µM, day 7) was < 0, the cell density ([2]; drug 1 µM) was 0.6 10^4 cells/mL and the “cell number” value ([2]; drug 1 µM, day 3) was < 0. The “cell number” value ([2]; drug 1 µM, day 5) was < 0, the “cell number” value ([2]; drug 1 µM, day 7) was < 0 and the “% Control value of the RLU value” value [3, 10] was 96 % Control. For the same molecule, the “% Control value of the absorbance” value [3, 10] was 105 % Control, the “% Control value of the RLU value” value [3, 11] was 97 % Control and the “% Control value of the absorbance” value [3, 11] was 109 % Control. The “% Control value of the RLU value” value [3, 12] was 81 % Control, the “% Control value of the absorbance” value [3, 12] was 86 % Control and the “% Control value of the RLU value” value [3, 13] was 97 % Control. For the same molecule, the “% Control value of the absorbance” value [3, 13] was 107 % Control, the “% Control value of the RLU value” value [3, 14] was 41 % Control and the “% Control value of the absorbance” value [3, 14] was 36 % Control. For the same molecule, the “% Control value of the RLU value” value [3, 15] was 65 % Control, the “% Control value of the absorbance” value [3, 15] was 74 % Control and the “% Control value of the RLU value” value [3, 16] was 15 % Control. The “% Control value of the absorbance” value [3, 16] was 4 % Control, the “% Control value of the RLU value” value [3, 17] was 5 % Control and the “% Control value of the absorbance” value [3, 17] was 6 % Control.
`Cc1c2oc3c(C)ccc(C(=O)N[C@@H]4C(=O)N[C@H](C(C)C)C(=O)N5CCC[C@H]5C(=O)N(C)CC(=O)N(C)[C@@H](C(C)C)C(=O)O[C@@H]4C)c3nc-2c(C(=O)N[C@@H]2C(=O)N[C@H](C(C)C)C(=O)N3CCC[C@H]3C(=O)N(C)CC(=O)N(C)[C@@H](C(C)C)C(=O)O[C@@H]2C)c(N)c1=O` [Actinomycin D] (I: T[dV]P[Sar][NMeV] / II: T[dV]P[Sar][NMeV]; ester I:1-I:C, II:1-II:C; linker I:N-II:N via Actinocin(9to1)) was tested, and the “% Control value of the RLU value” value [1, 8] was 4 % Control, the “% Control value of the absorbance” value [1, 8] was 3 % Control and the “% Control value of the RLU value” value [1, 9] was 2 % Control. The “% Control value of the absorbance” value [1, 9] was 2 % Control, the “% Control value of the RLU value” value [1, 18] was 6 % Control and the “% Control value of the absorbance” value [1, 18] was 12 % Control. For the same molecule, the “% Control value of the RLU value” value [1, 19] was 2 % Control and the “% Control value of the absorbance” value [1, 19] was 4 % Control.
With `CO[C@@]12[C@H](COC(N)=O)C3=C(C(=O)C(C)=C(N)C3=O)N1C[C@@H]1N[C@@H]12` [Mitomycin C] the cell density ([2]; drug 0.01 µM) was 1.0 10^4 cells/mL, the “cell number” value ([2]; drug 0.01 µM, day 3) was 0.089 and the “cell number” value ([2]; drug 0.01 µM, day 5) was 0.016. For the same molecule, the “cell number” value ([2]; drug 0.01 µM, day 7) was < 0, the cell density ([2]; drug 0.1 µM) was 0.4 10^4 cells/mL and the “cell number” value ([2]; drug 0.1 µM, day 3) was 0.032. The “cell number” value ([2]; drug 0.1 µM, day 5) was < 0, the “cell number” value ([2]; drug 0.1 µM, day 7) was < 0 and the cell density ([2]; drug 1 µM) was 0.1 10^4 cells/mL. The “cell number” value ([2]; drug 1 µM, day 3) was < 0, the “cell number” value ([2]; drug 1 µM, day 5) was < 0 and the “cell number” value ([2]; drug 1 µM, day 7) was < 0. The “% Control value of the RLU value” value [3, 20] was 83 % Control, the “% Control value of the absorbance” value [3, 20] was 94 % Control and the “% Control value of the RLU value” value [3, 21] was 99 % Control. The “% Control value of the absorbance” value [3, 21] was 101 % Control, the “% Control value of the RLU value” value [3, 22] was 48 % Control and the “% Control value of the absorbance” value [3, 22] was 37 % Control. The “% Control value of the RLU value” value [3, 23] was 89 % Control, the “% Control value of the absorbance” value [3, 23] was 83 % Control and the “% Control value of the RLU value” value [3, 24] was 29 % Control. The “% Control value of the absorbance” value [3, 24] was 12 % Control, the “% Control value of the RLU value” value [3, 25] was 86 % Control and the “% Control value of the absorbance” value [3, 25] was 71 % Control.
`COc1cc([C@@H]2c3cc4c(cc3[C@@H](O[C@@H]3O[C@@H]5CO[C@@H](C)O[C@H]5[C@H](O)[C@H]3O)[C@H]3COC(=O)[C@H]23)OCO4)cc(OC)c1O` [Etoposide] was tested, and the “% Control value of the RLU value” value [1, 8] was 35 % Control, the “% Control value of the absorbance” value [1, 8] was 39 % Control and the “% Control value of the RLU value” value [1, 9] was 64 % Control. For the same molecule, the “% Control value of the absorbance” value [1, 9] was 68 % Control, the “% Control value of the RLU value” value [1, 18] was 24 % Control and the “% Control value of the absorbance” value [1, 18] was 23 % Control. For the same molecule, the “% Control value of the RLU value” value [1, 19] was 65 % Control and the “% Control value of the absorbance” value [1, 19] was 63 % Control.
`C[C@@H]1C[C@@H]([C@H](O)CC2CC(=O)NC(=O)C2)C(=O)[C@@H](C)C1` [Cycloheximide] was tested, and the “% Control value of the RLU value” value [1, 18] was 9 % Control, the “% Control value of the absorbance” value [1, 18] was 4 % Control and the “% Control value of the RLU value” value [1, 19] was 29 % Control. The “% Control value of the absorbance” value [1, 19] was 21 % Control, the “% Control value of the RLU value” value [1, 26] was 4 % Control and the “% Control value of the absorbance” value [1, 26] was 1 % Control. For the same molecule, the “% Control value of the RLU value” value [1, 27] was 9 % Control and the “% Control value of the absorbance” value [1, 27] was 7 % Control.
With `C[C@@H]1C[C@H]2[C@@H]3CCC4=CC(=O)C=C[C@]4(C)[C@@]3(F)[C@@H](O)C[C@]2(C)[C@@]1(O)C(=O)CO` [Dexamethasone] the “% Control value of the RLU value” value [1, 8] was 232 % Control, the “% Control value of the absorbance” value [1, 8] was 184 % Control and the “% Control value of the absorbance” value [1, 9] was 89 % Control. The “% Control value of the RLU value” value [1, 18] was 241 % Control, the “% Control value of the absorbance” value [1, 18] was 173 % Control and the “% Control value of the RLU value” value [1, 19] was 116 % Control. The “% Control value of the absorbance” value [1, 19] was 92 % Control.
